Assay results published in US9717732B2, “Drug combination” (VERONA PHARMA PLC, priority 2013, dated 2017).

Experiments:
[1] = system: human isolated bronchial preparations; assay: Inhibition of EFS-induced contraction of human isolated bronchi; settings: after termination of drug exposure
Description: Regions of macroscopically normal lungs were taken from uninvolved areas resected from 24 subjects (11 male and 13 female, 60.1±1.6 years old) undergoing lobectomy surgery for lung cancer, but without a history of chronic airway disease.
Airways were immediately placed into oxygenated Krebs-Henseleit buffer solution (KH) (mM: NaCl 119.0, KCl 5.4, CaCl2 2.5, KH2PO41.2, MgSO4 1.2, NaHCO3 25.0, glucose 11.7; pH 7.4) containing the cyclooxygenase (COX) inhibitor indomethacin (5.0 μM), and transported at 4° C. from the “Regina Elena National Cancer Institute” or the “Sant'Andrea Hospital” to the Respiratory Research Laboratory in the Surgery and Medicine Faculty of “Tor Vergata University”, Rome, Italy. None of the subjects were chronically treated with theophylline, β2-agonists or glucocorticosteroids. Serum IgE levels determined on the day of surgery were in the normal range. […]
Human bronchi were placed in organ baths containing KH buffer solution (37° C.) medicated with indomethacin (5.0 μM), bubbled with 95% O2/5% CO2 and suspended under passive tension (0.5-1.0 g). […] Changes in isometric tension were measured with a transducer (Fort 10 WPI, Basile, Instruments, Italy) and the tissue responsiveness was assessed by acetylcholine (100 μM); when the response reached a plateau, rings were washed three times and allowed to equilibrate for 45 min. […]

[2] = system: human isolated bronchial tissues pre-contracted with acetylcholine; assay: Relaxation of human isolated bronchi pre-contracted with acetylcholine (EC70), drugs alone and in combination, synergy analysis; settings: n=5; for slope (nH): 4 parameter logistic fit
Description: Bronchial rings were mounted on hooks in the organ baths where one hook was attached with threaded to a stationary rod and the other hook tied with thread to an isometric force displacement transducer. […] Tallarida, 2001; Goldoni and Johansson, 2007; Boik et al., 2008; Lee, 2010). […] Goodman et al., 2008). E/Emax was expressed as percentage of Emax elicited by the contractile agents; […] The analysis of the potential synergism between RPL554 plus a β2-adrenergic receptor agonist was measured by applying the Berenbaum method, the Bliss Independence (BI) criterion and the Loewe Additivity (LA) model through curved isoboles (Berenbaum, 1977; Greco et al., 1995; Grabovsky and Tallarida, 2004; Tallarida, 2006; Goldoni and Johansson, 2007; Tallarida and Raffa, 2010). […] Lee, 2010). The BI theory for two agents is expressed by the following equation: E(x,y)=Ex+Ey-(Ex*Ey), where E is the fractional effect, and x and y are the concentrations of two compounds in a combination experiment. If the combination effect is higher than the expected value from the above equation, the interaction is considered synergistic, while if this effect is lower, the interaction is antagonistic. […] In this study, the BI equation was characterized by X=RPL554 and Y=β2-adrenergic receptor agonist. […] Using the concept of dose equivalence, the relationship a/A+b/B=1 was reformulated as b+beq (a)=B, where beq is the dose equivalent of a and solving for beq(a) by equating the two individual concentration response curves EA=f(A) and EB=f(B). The additive response (Eab) for each dose combination with respect to B was then calculated by insertion of B into EB=f(B). The difference between the observed relaxation response to the combination doses and the additive response was calculated and analysed using a one sample t-test and for multiple comparisons, the probability was adjusted for multiple comparisons using a Bonferroni correction. For illustrative purposes, the 1:1 dose combinations were analysed for synergy. […] Then, concentration response curves were constructed to test individual compound RPL554, or salbutamol alone; or RPL554 administered in combination with salbutamol in order to produce isobolar graphs (salbutamol:RPL554 and ranging from 10:1 to 1:100) as described elsewhere (Greco et al., 1995; Tallarida, 2001; Goldoni and Johansson, 2007; Boik et al., 2008; Lee, 2010).

[3] = system: passively sensitized human isolated bronchi; assay: Contraction induced by histamine in passively sensitized human bronchi; settings: RPL554 100 μM
Description: Human isolated bronchial rings were rotated overnight at room temperature in tubes containing KH buffer solution in the absence (non-sensitized control rings) or the presence of 10% vol^−1 sensitizing serum (sensitized rings) as described elsewhere (Watson et al., 1997; Rabe, 1998). Subjects suffering from atopic asthma (total IgE>250 U^−1 specific against common aeroallergens) during exacerbation provided signed consent for serum donation.
Sera was prepared by centrifugation of whole blood and sera samples were frozen at −80° C. in 200 ml aliquots until required.
The next morning, after removal of adhering alveolar and connective tissues, bronchial rings were transferred into an organ bath containing KH buffer (37° C.) and continuously gassed with a 95% O2/5% CO2. Tissues were pre-incubated for 30 min with RPL554 (1, 10 and 100 μM) and then followed (without washing) by the construction of concentration responses curve to histamine (10 nM-1 mM) in the presence of RPL554.
Appropriate curve-fitting to a sigmoidal model was used to calculate the effect (E), the Emax and the concentration required to cause a 50% maximal effect (EC50). The equation used was log [agonist] vs. response, Variable slope, expressed as Y=Bottom+(Top−Bottom)/{1+10^[(Log EC50−X)*HillSlope]} (Motulsky and Christopoulos, 2004; Goodman et al., 2008). […]

anaesthetized rats = assay: Cardiovascular interaction (safety) study, blood pressure and heart rate, i.v. bolus; type: in vivo, rat
Description: This study was undertaken to determine whether RPL554 has cardiovascular interactions with a β2-adrenergic receptor agonist (salbutamol). A muscarinic receptor antagonist (atropine) was included for completeness. RPL554 is a dual PDE3/PDE4 inhibitor being developed for treatment of chronic obstructive pulmonary disease (COPD) and asthma as an inhaled bronchodilator with possible anti-inflammatory actions. […] The study design was blind and random with drugs given as pairs five minutes apart in an alternating manner, e.g., RPL554 followed by salbutamol and vice versa. […] Instead they were chosen to test for possible interactions under supra therapeutic conditions.
Doses producing a 15-30 mmHg increase in mean blood pressure (MBP) and 30-60 beats per minute increase in heart rate (HR) were chosen from an initial dose-response study for RPL554 and salbutamol. […] Thereafter, the chosen doses were examined in pairs administered 5 minutes part. […] The intention of the study was to use supra normal conditions in order to challenge for possible interactions under supra therapeutic conditions.
The studies were performed on Sprague-Dawley male rats from Charles River weighing 200-250 grms. […] For the purposes of the experiment the animals were anaesthetized with thiobutabarbital at a dose of 100 mg/kg given by the i.p. route. There was no necessity for supplemental anaesthesia and at the end of the experimental period each rat was sacrificed. The study had two parts: (I) an initial dose ranging study and (II) the interaction study. The drugs studied were: RPL554 (R), salbutamol (S), atropine (A) all dissolved in saline.
An initial dose-ranging study was performed as follows: cumulative dose-response curves for intravenous bolus doses of the three drugs were performed to determine appropriate doses of each of the three drugs for the full study. Doses of RPL554 or salbutamol producing a 15-30 mmHg increase in mean blood pressure (MBP) and 30-60 beats per minute increase in heart rate (HR) were chosen from this initial dose-response study. […] This dose-ranging study involved four rats in which cumulative doses of each of the 3 drugs were given on a dose-doubling basis. Doses of each of the drugs were given as i.v. bolus injections every 5 minutes with 1 hour between different drugs. The order of injections were: for animal 1—S, R, A; animal 2—R, A, S; animal 3—A, S, R and animal 4—R, A, S. As indicated above the doses and routes of injection where chosen as supernormal and above doses producing effects when given by inhalation.
In this study all drugs were given as a single dose by i.v. bolus injection, via a jugular vein cannula, and at a volume of 1 mL/kg. The study design was blind and random with three lines each containing four animals for a total of 12 animals.
Pairs of drugs were given to individual animals on a randomized blind basis using a line by line design where each line contained four rats with injections as follows: R1S2, S1R2, R1A2 and A1R2 (in random order where 1 indicates the first drug given and 2 indicates the second drug given 5 minutes after the first drug). A total of 3 lines were studied thus a total of 12 rats were used and none of the animals had to be replaced.

Guinea pigs = assay: Reduction in mean arterial blood pressure after iv. administration; type: in vivo, guinea pig; settings: 20 μg/kg RPL554 iv., control (alone)
Description: (§1) Guinea pigs were anaesthetized and ventilated. Airway obstruction was induced by the intravenous administration of bombesin (2 μg/ml; 5 ml/hr). Bronchodilation was induced by the iv. administration of RPL554 alone at various doses, or in combination with sub maximal dose of salbutamol (20 μg/kg). Doses were selected following studies generating a dose-response curve for both salbutamol to select a dose resulting in approximately 20% reduction in airways obstruction. Total lung resistance (RL) and mean arterial blood pressure were measured. Data are expressed as % reduction in airways obstruction or blood pressure.

guinea pig airways = assay: Reversal of bombesin-induced airways obstruction (total lung resistance); type: in vivo; settings: salbutamol 20 μg/kg alone
Description: as §1

What does the source list for COc1cc2c(cc1OC)-c1cc(=Nc3c(C)cc(C)cc3C)n(CCNC(N)=O)c(=O)n1CC2 [RPL554, 9,10-Dimethoxy-2-(2,4,6-trimethylphenylimino)-3-(N-carbamoyl-2-aminoethyl)-3,4,6,7-tetrahydro-2H-pyrimido[6,1-a]isoquinolin-4-one]?
Duration of inhibition of EFS contractile response after exposure to drug [1]: at least 5 h; slope (nH) ([2]; mean±SD): 2.271±0.713; Effect on contraction induced by histamine [3]: completely abolished the contraction induced by histamine; Time to peak response, blood pressure (anaesthetized rats): 60 to 80 s; Time to peak response, heart rate (anaesthetized rats): 2 to 4.5 min; reduction in mean arterial blood pressure (Guinea pigs): 37.3±6.7%

With CC(C)(C)NCC(O)c1ccc(O)c(CO)c1 (centres unmarked) [salbutamol] as the compound, how does the EC50 ([2]; Homo sapiens, geomean (95% CI), acetylcholine EC70, read-out: potency (EC50), relaxation) read?
The EC50 was 283 nM.

And the Emax ([2]; Homo sapiens, mean±SD, acetylcholine EC70, percentage of papaverine (500 μM) induced relaxation)?
Its Emax is 78 ± 11%.

And the “slope (nH)” value ([2]; mean±SD)?
The value was 1.572±0.482.

What about the “Time to peak response, blood pressure” value (anaesthetized rats) of the same compound?
The value was “approximately 20 seconds”.

What about the “Time to peak response, heart rate” value (anaesthetized rats) of the same compound?
Its value is about 1 min.

And the “reduction in airways obstruction” value (guinea pig airways)?
Its value is 34.2±11.1%.

How did the “Time to peak response, blood pressure” value (anaesthetized rats) turn out when CN1[C@@H]2CC[C@H]1C[C@@H](OC(=O)C(CO)c1ccccc1)C2 (some centres unmarked) [atropine] was run?
Its value is 240 s.

And the “Time to peak response, heart rate” value (anaesthetized rats)?
Its value is 4 min.
